In patent US20240156790A1, “COMPOUNDS, COMPOSITIONS, AND METHODS FOR MODULATING FERROPTOSIS AND TREATING EXCITOTOXIC DISORDERS” (THE TRUSTEES OF COLUMBIA UNIVERSITY IN THE CITY OF NEW YORK, priority 2018, published 2024):

Experiment: Plasma Stability Assay (Examples 6 and 8)
Type: in vitro ADME, mouse
Details: for half-life at 20 µM: mouse, plasma diluted 1:1 in phosphate buffer, pH 7.4, experiment I, read-out: t1/2 I; for half-life at 20 µM / t1/2 II: plasma half-life; for t1/2 II: experiment II
Procedure: (§1) Mouse plasma (GeneTex) was centrifuged at 3000 rpm for 10 min at 10° C. with the resulting supernatant withdrawn and diluted 1:1 in phosphate buffer pH 7.4. To a 96-well polypropylene plate was added 50% mouse plasma phosphate buffer (195 μL). A stock solution of analog in DMSO (0.8 μL. 5 mM) or fer-1 (positive control) was added to a separate well and the components were warmed to 37° C. for 5 min with gentle agitation. The reaction was initiated with the addition of analog to plasma, and the reaction kept at 37° C. for gentle agitation for the duration of the assay. At selected time points, aliquots (15 μL) were withdrawn from the plate and quenched upon addition to cold methanol (60 μL), containing an internal standard (5 μM) in a separate 96-well polypropylene plate. At the completion of the final time-point, the samples were centrifuged at 4,000 rpm for 5 min at 4° C. The supernatant (40 μL) was withdrawn and transferred to a sample vial with insert. The samples were analyzed by LC-MS. LC-MS analysis was performed on a platform comprising a Thermo Scientific Dionex Ultimate 3000 and a Bruker amaZon SL equipped with an electrospray ionization source controlled by Bruker Hystar 3.2. Chromatographic separation was performed by injecting 5 μL of the sample onto an Agilent Eclipse Plus C18 column (2.1×50 mm, 3.5 μm) maintained at 20° C. The flow rate was maintained at 400 μL/min. The initial flow conditions were 80% solvent A (water containing 0.1% acetic acid) and 20% solvent B (methanol containing 0.1% acetic acid). Solvent B was raised to 80% over 0.50 min by 1.50 min. Solvent B was raised to 100% by 5.00 min and held there for 3.25 min. […] All analogs were detected in positive mode as [M+H]*. The percent compound remaining at each time-point was calculated as the ratio of the integrated compound peak over the internal standard peak and standardized to the t=0 time-point. Values were plotted in GraphPad Prism 9 and fit with a one phase decay.
as §1, with “3000 rpm (1053 g) for 10” for “3000 rpm for 10”, “4,000 rpm (1872 g) for 5” for “4,000 rpm for 5”, “phase decay. […]” for “phase decay.”

| Structure (SMILES) | stability in mouse plasma, in words | time to full degradation in mouse plasma | half-life at 20 µM [h] | t1/2 II [h] |
| --- | --- | --- | --- | --- |
| CCOC(=O)c1ccc(NC2CCCCC2)c(N)c1 [Fer-1, Ferrostatin-1, reference compound] | rapidly degraded in mouse plasma | less than 15 min | – | – |
| CCC(CC)Nc1cc(-c2nc(C)no2)cnc1NC1CCCCC1 [TH-4-55-2, N^2-cyclohexyl-5-(3-methyl-1,2,4-oxadiazol-5-yl)-N^3-(pentan-3-yl)pyridine-2,3-diamine] | not metabolized in mouse plasma | – | > 4 | >4 |
| Cc1noc(-c2cnc(NC3CCCC3)c(NC3CCCC3)c2)n1 [TH-4-67, N^2,N^3-dicyclopentyl-5-(3-methyl-1,2,4-oxadiazol-5-yl)pyridine-2,3-diamine] | not metabolized in mouse plasma | – | > 4 | >4 |
| Cc1noc(-c2cnc(NC3CCCCC3)c(NC3CCCCC3)c2)n1 [TH-2-31, N^2,N^3-dicyclohexyl-5-(3-methyl-1,2,4-oxadiazol-5-yl)pyridine-2,3-diamine] | not metabolized in mouse plasma | – | > 4 | >4 |
